Assay results: US8163793B2, “Proline derivatives” (Hoffman-La Roche Inc., priority 2009, dated 2012)

Legend:
[1] = target: Cathepsin S (UniProt P25774); experiment: Cathepsin enzyme inhibition assay (fluorogenic peptide substrate Z-Val-Val-Arg-AMC), Cathepsin S; assay type: biochemical, human and mouse; conditions: enzyme 1 nM, substrate 20 μM, pH 6.5; read-out: CatS IC50
Method in brief: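 Compounds were combined with 1 nM human or mouse enzyme, and substrate then started the reaction. The buffer was potassium phosphate (100 mM, pH 6.5) containing EDTA-Na 5 mM, Triton X-100 0.001% and […] 5 mM.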

[2] = target: Cat L (UniProt P07711); experiment: Cathepsin enzyme inhibition assay (fluorogenic peptide substrate Z-Val-Val-Arg-AMC), Cathepsin L; assay type: biochemical, human and mouse; conditions: enzyme 1 nM, substrate 20 μM, pH 6.5; read-out: CatL IC50
Method in brief: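 Fluorogenic cleavage of Z-Val-Val-Arg-AMC (20 μM) by 1 nM Cat L was monitored at ex 360/em 465 nm for 20 min, the linear phase. The buffer was 100 mM potassium phosphate pH 6.5 with 5 mM EDTA and DTT. IC50 values were derived by standard methods, in μM.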

Row | Compound | IC50 [1] | IC50 [2]
1 | N#CC1(NC(=O)[C@@H]2C[C@@H](S(=O)(=O)c3ccc(OC4COC4)cc3Cl)CN2)CC1 [Example 181, (2S,4R)-4-[2-Chloro-4-(oxetan-3-yloxy)-benzenesulfonyl]-pyrrolidine-2-carboxylic acid (1-cyano-cyclopropyl)-amide] | 3.7 nM | 16500 nM
2 | N#CC1(NC(=O)C2C[C@@H](S(=O)(=O)c3ccc(OCC(F)(F)F)cc3Cl)CN2C=O)CC1 (stereo partly drawn) [Example 182, (R)-4-[2-Chloro-4-(2,2,2-trifluoro-ethoxy)-benzenesulfonyl]-1-formyl-pyrrolidine-2-carboxylic Acid (1-cyano-cyclopropyl)-amide] | 9.7 nM | ≥ 25000 nM
3 | C[C@H](Oc1ccc(S(=O)(=O)[C@@H]2C[C@H](C(=O)NC3(C#N)CC3)N(C(=O)C3(C(F)(F)F)CC3)C2)c(Cl)c1)C(F)(F)F [Example 184, (2R,4R)-4-[2-Chloro-4-((S)-2,2,2-trifluoro-1-methyl-ethoxy)-benzenesulfonyl]-1-(1-trifluoromethyl-cyclopropanecarbonyl)-pyrrolidine-2-carboxylic acid (1-cyano-cyclopropyl)-amide] | 32 nM | ≥ 25000 nM
4 | N#CC1(NC(=O)[C@@H]2C[C@@H](S(=O)(=O)c3ccc(Cl)cc3Cl)CN2c2ncccc2C(F)(F)F)CC1 [Example 188, (2S,4R)-4-(2,4-Dichloro-benzenesulfonyl)-1-(3-trifluoromethyl-pyridin-2-yl)-pyrrolidine-2-carboxylic acid (1-cyano-cyclopropyl)-amide] | 6.4 nM | 16700 nM
5 | N#CC1(NC(=O)[C@H]2C[C@@H](S(=O)(=O)c3ccc(Cl)cc3Cl)CN2c2ncccc2C(F)(F)F)CC1 [Example 189, (2R,4R)-4-(2,4-Dichloro-benzenesulfonyl)-1-(3-trifluoromethyl-pyridin-2-yl)-pyrrolidine-2-carboxylic acid (1-cyano-cyclopropyl)-amide] | 665 nM | ≥ 25000 nM
6 | CCN1CCN(c2ccc(S(=O)(=O)[C@@H]3C[C@H](C(=O)NC4(C#N)CC4)N(c4ncccc4C(F)(F)F)C3)c(Cl)c2)CC1 [Example 191, (2R,4R)-4-[2-Chloro-4-(4-ethyl-piperazin-1-yl)-benzenesulfonyl]-1-(3-trifluoromethyl-pyridin-2-yl)-pyrrolidine-2-carboxylic acid (1-cyano-cyclopropyl)-amide] | 107 nM | ≥ 25000 nM
7 | Cc1cc(N2C[C@H](S(=O)(=O)c3ccccc3C(F)(F)F)C[C@H]2C(=O)NC2(C#N)CC2)n(-c2ccc(F)cc2)n1 [Example 195, (2S,4R)-1-[2-(4-Fluoro-phenyl)-5-methyl-2H-pyrazol-3-yl]-4-(2-trifluoromethyl-benzenesulfonyl)-pyrrolidine-2-carboxylic acid (1-cyano-cyclopropyl)-amide] | 3.6 nM | ≥ 25000 nM
8 | C[C@H](Oc1ccc(S(=O)(=O)[C@@H]2C[C@H](C(=O)NC3(C#N)CC3)N(C(=O)C3CC3)C2)c(Cl)c1)C(F)(F)F [Example 198, (2R,4R)-4-[2-Chloro-4-((S)-2,2,2-trifluoro-1-methyl-ethoxy)-benzenesulfonyl]-1-cyclopropanecarbonyl-pyrrolidine-2-carboxylic acid (1-cyano-cyclopropyl)-amide] | 27 nM | ≥ 25000 nM

Stronger by IC50 [1], values ahead:

Row | IC50 [1] | IC50 [2] | Compound
9 | 0.47 nM | 21400 nM | CC(C)CC(=O)N1C[C@H](S(=O)(=O)c2ccc(OCC(F)(F)F)cc2Cl)C[C@H]1C(=O)NC1(C#N)CC1 [Example 180, (2S,4R)-4-[2-Chloro-4-(2,2,2-trifluoro-ethoxy)-benzenesulfonyl]-1-(3-methyl-butyryl)-pyrrolidine-2-carboxylic acid (1-cyano-cyclopropyl)-amide]
10 | 0.44 nM | 9670 nM | C[C@H](Oc1ccc(S(=O)(=O)[C@@H]2C[C@@H](C(=O)NC3(C#N)CC3)N(C(=O)C3(C(F)(F)F)CC3)C2)c(Cl)c1)C(F)(F)F [Example 183, (2S,4R)-4-[2-Chloro-4-((S)-2,2,2-trifluoro-1-methyl-ethoxy)-benzenesulfonyl]-1-(1-trifluoromethyl-cyclopropanecarbonyl)-pyrrolidine-2-carboxylic acid (1-cyano-cyclopropyl)-amide]
11 | 1.5 nM | 5160 nM | CCN1CCN(c2ccc(S(=O)(=O)[C@@H]3C[C@@H](C(=O)NC4(C#N)CC4)N(c4ncccc4C(F)(F)F)C3)c(Cl)c2)CC1 [Example 190, (2S,4R)-4-[2-Chloro-4-(4-ethyl-piperazin-1-yl)-benzenesulfonyl]-1-(3-trifluoromethyl-pyridin-2-yl)-pyrrolidine-2-carboxylic acid (1-cyano-cyclopropyl)-amide]
12 | 0.5 nM | 43700 nM | Cc1cc(N2C[C@H](S(=O)(=O)c3ccccc3C(F)(F)F)C[C@H]2C(=O)NC2(C#N)CC2)n(-c2ccccc2)n1 [Example 192, (2S,4R)-1-(5-Methyl-2-phenyl-2H-pyrazol-3-yl)-4-(2-trifluoromethyl-benzenesulfonyl)-pyrrolidine-2-carboxylic acid (1-cyano-cyclopropyl)-amide]
13 | 0.2 nM | 28500 nM | Cc1cc(N2C[C@H](S(=O)(=O)c3ccccc3C(F)(F)F)C[C@H]2C(=O)NC2(C#N)CC2)n(-c2ccnc(Cl)c2)n1 [Example 193, (2S,4R)-1-[2-(2-Chloro-pyridin-4-yl)-5-methyl-2H-pyrazol-3-yl]-4-(2-trifluoromethyl-benzenesulfonyl)-pyrrolidine-2-carboxylic acid (1-cyano-cyclopropyl)-amide]
14 | 0.4 nM | 16600 nM | Cc1cc(N2C[C@H](S(=O)(=O)c3ccccc3C(F)(F)F)C[C@H]2C(=O)NC2(C#N)CC2)n(-c2ccc(Cl)cc2)n1 [Example 194, (2S,4R)-1-[2-(4-Chloro-phenyl)-5-methyl-2H-pyrazol-3-yl]-4-(2-trifluoromethyl-benzenesulfonyl)-pyrrolidine-2-carboxylic acid (1-cyano-cyclopropyl)-amide]
15 | 0.3 nM | 41400 nM | Cc1cc(N2C[C@H](S(=O)(=O)c3ccccc3C(F)(F)F)C[C@H]2C(=O)NC2(C#N)CC2)n(-c2cc[nH]c(=O)c2)n1 [Example 196, (2S,4R)-1-[5-Methyl-2-(2-oxo-1,2-dihydro-pyridin-4-yl)-2H-pyrazol-3-yl]-4-(2-trifluoromethyl-benzenesulfonyl)-pyrrolidine-2-carboxylic acid (1-cyano-cyclopropyl)-amide]
16 | 0.9 nM | 19000 nM | C[C@H](Oc1ccc(S(=O)(=O)[C@@H]2C[C@@H](C(=O)NC3(C#N)CC3)N(C(=O)C3CC3)C2)c(Cl)c1)C(F)(F)F [Example 197, (2S,4R)-4-[2-Chloro-4-((S)-2,2,2-trifluoro-1-methyl-ethoxy)-benzenesulfonyl]-1-cyclopropanecarbonyl-pyrrolidine-2-carboxylic acid (1-cyano-cyclopropyl)-amide]
17 | 0.5 nM | 7740 nM | C[C@H](Oc1ccc(S(=O)(=O)[C@@H]2C[C@@H](C(=O)NC3(C#N)CC3)N(C(=O)C3(C)CC3)C2)c(Cl)c1)C(F)(F)F [Example 199, (2S,4R)-4-[2-Chloro-4-((S)-2,2,2-trifluoro-1-methyl-ethoxy)-benzenesulfonyl]-1-(1-methyl-cyclopropanecarbonyl)-pyrrolidine-2-carboxylic acid (1-cyano-cyclopropyl)-amide]
